Reference: the METLIN SMRT retention time set (Domingo-Almenara et al. 2019)

Assay: gradient 5% acetonitrile 3 min, to 50% in 2 min, to 85% in 15 min, held 3 min, 100 µL/min
Settings: column: Zorbax Extend-C18 2.1 x 50 mm; eluents: water / acetonitrile, 0.1% formic acid
In short: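 The mobile phases were water and acetonitrile, each with 0.1% formic acid, pumped at 100 μL/min through a Zorbax Extend-C18 column (2.1 × 50 mm, 1.8 μm). Pure standards were injected as mixtures of ~100 molecules and detected by a quadrupole time-of-flight mass spectrometer in positive and negative ionization mode. Retention time came from computationally picked adduct peaks, each inspected by hand.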

RP-LC retention time [s] | SMILES
669 | CCCNC(=O)C1CCCN(c2nc3ncn(CC(=O)NCc4ccccc4)c(=O)c3s2)C1 (configuration not stated)
842 | O=C(Nc1cnc(N2CCCCC2)nc1)c1cccs1
810 | O=C(NCc1cc(-c2ccccc2F)on1)c1ccccc1Br
622 | CCOCC(=O)N1CC(c2nc(-c3cccnc3)no2)C2(CCOCC2)C1 (configuration not stated)
756 | Cc1ccc(NS(=O)(=O)c2ccc3c(c2)CCCC(=O)N3)cc1C
1160 | Cc1ccc(C)c(CNC(=O)c2nnc(-c3ccc(S(=O)(=O)N4CCC(C)CC4)cc3)o2)c1
556 | CCCNc1cc(N2CCC(CCC(=O)NCc3ccccn3)CC2)ncn1
661 | CCc1nc(N)n(CC(=O)Nc2ccc(Cl)cc2)c(=O)c1C
864 | COc1ccc(C2CC(=O)N(c3ccc(OC)cc3)C(=O)C2)cc1
764 | COc1ccc(CNC(=O)N2C[C@@H]3C[C@H]2C[C@@H]3NS(=O)(=O)c2ccccc2)cc1
849 | COc1cc(NC(=O)N2CCCC2c2nc(-c3ccccc3OC)no2)cc(OC)c1 (configuration not stated)
902 | COc1cccc(-c2csc(Nc3ccc(C)cn3)n2)c1
806 | CCOc1cc(=O)n2c(c1C(=O)Nc1cc(Cl)ccc1F)CCCC2
837 | Cc1cc2c(c(=O)n(-c3ccc(F)cc3)c(=O)n2CC(=O)Nc2ccccc2F)n1C
580 | Cc1ccc(C)c(NC(=O)N2CCc3nc[nH]c3C2)c1
643 | O=C(Cn1ncc2c(N3CCN(c4ccccn4)CC3)ncnc21)Nc1ccc(Cl)cc1
1060 | Cc1ccc(NC(=O)C(=O)c2ccc[nH]2)c(Br)c1
681 | COc1ccc2[nH]c(=O)c(CCC(=O)NCCOc3ccccc3OC)cc2c1
1060 | COc1cc(Cl)ccc1-c1nc(-c2cccc(-c3ccn[nH]3)c2)no1
710 | c1ccc(CNc2c(-c3ccc4c(c3)OCCO4)nc3ncccn23)cc1
1000 | Cc1cccc(-c2nnc(Cc3nc(C(C)(C)C)no3)o2)c1
538 | CC(=O)N1C[C@@H]2CCCN3CCC[C@@H]([C@H]23)[C@H]1CCCC(=O)NCCN(C)C1CCCCC1
661 | CC1(C)Cc2cccc(OCC(=O)NCc3n[nH]c(=O)c4ccccc34)c2O1

RP-LC retention time [s] | SMILES
998 | O=C(Cn1c(=O)n(C2CCCC2)c2ncccc21)Nc1ccc(Br)cc1
571 | COc1ccc(CC(=O)NCCc2ccc(N(C)C)cc2)cc1
677 | CNC(=O)OCN1C(=O)C2CC=CCC2C1=O (configuration not stated)
926 | CCN1C=C(C(=O)OCc2cc(F)cc(F)c2)C(C)=NS1(=O)=O
1140 | COc1ccc(OC)c(S(=O)(=O)N2CCC(c3noc(-c4ccccc4C)n3)CC2)c1
838 | CC(C)CCNC(=O)C1(C)Cn2nc(C(=O)NCc3ccccc3Br)cc2C(=O)N1C (configuration not stated)
591 | COCCNS(=O)(=O)c1cc(-c2[nH]ncc2C(=O)N2CCCC2)oc1C
1180 | O=C(NC1CCCCC1)c1cc2ccccc2cc1O
762 | Cc1cc2c(=O)n(CC(=O)Nc3ccc(F)cc3C)ccc2s1
896 | Cc1[nH]c(-c2ccccc2)cc1C(=O)N1CCCCCC1
713 | CNC(=O)c1ccc(-c2nc3cc(NS(=O)(=O)c4ccc(C(C)C)cc4)ccc3n2C)cc1
883 | O=C(NCc1ccco1)C1CCN(c2nccnc2Sc2ccccc2)CC1
822 | CCOc1ccc2c(n1)CCN(C(=O)NC1CCCCC1)C2
1120 | Cc1ccc(-c2nc(Nc3cccc(C(F)(F)F)c3)sc2CC(=O)O)c(C)c1
683 | CCOC(=O)CNC(=O)N1CCN(c2ccc(=O)n(-c3ccc(C)cc3)n2)CC1
799 | CCc1nc(-c2csc(S(=O)(=O)N3CCC(C(=O)Nc4ccc(C)cn4)CC3)c2)no1
587 | CN1CCN(CCCNC(=O)CN2C(=O)CCn3nc(-c4cn(C)c5ccccc45)cc32)CC1
979 | CC1CCN(c2nccnc2Oc2ccc(C(=O)NCc3ccco3)cc2)CC1
820 | Cc1csc(-c2ccc(N3CCN(C(=O)c4ccc(F)cc4)CC3)nc2)n1
636 | O=c1[nH]c2ccc(NCc3c(F)cccc3Cl)cc2[nH]1
648 | Cn1c(=O)c(C(=O)N2CCCCC2)nc2cccnc21
836 | Cc1cc(C(=O)N2CC(c3nc(Cc4ccccc4)no3)C2)c(C)o1
945 | CCc1nc2sc(C(C)C)nn2c1S(=O)(=O)N1CCCC1

RP-LC retention time [s] | SMILES
760 | O=C(Cc1ccc([N+](=O)[O-])cc1)NC1CC(=O)N(c2ccc(Cl)cc2)C1 (configuration not stated)
962 | Cc1ccc(-c2cc3c(=O)n(Cc4noc(CN5CCSCC5)n4)ccn3n2)c(C)c1
841 | CC(C)CCNC(=O)[C@H](CC(C)C)NC(=O)[C@H]1O[C@@H]1C(=O)O
660 | CN(CC1CCOC1)C(=O)Nc1cccc(F)c1 (configuration not stated)
631 | CCC1Oc2ccc(C)cc2N(CC(=O)NCCN(C)C)C1=O (configuration not stated)
747 | COC(=O)c1ncn2c1C(=O)N(Cc1ccc(C)cc1)C(C)(C(=O)NCc1ccccc1)C2 (configuration not stated)
1280 | Cc1ccc(Cl)cc1NC(=O)CSc1cc(N2CCN(c3ccccc3F)CC2)ncn1
913 | O=C(CN1C(=O)CCc2cc(Br)ccc21)N1CCN(c2ccccc2)CC1
920 | COc1cc(NC(=O)N2CCC3(CC2)Nc2ccccc2-n2cccc23)cc(OC)c1OC
708 | Cc1ccc(NC(=O)C2CC(=O)N(c3n[nH]c4cccc(F)c34)C2)cc1 (configuration not stated)
792 | CCn1c(=O)c2ccn(CC(=O)Nc3cc(C)cc(C)c3)c2n(CC)c1=O
793 | COc1ccc(-c2ccc(SCC(=O)Nc3cccc([N+](=O)[O-])c3)nn2)cc1OC
739 | CCc1ccc(C2=C(C)C(N3CCC(NC(=O)NCCCOC)CC3)=NS2(=O)=O)cc1
590 | Cc1cc(N2CCC(C)CC2)n2nc(CN3CCN(C(C)C)CC3)nc2n1
848 | CCSc1ccccc1C(=O)NCc1nc(COc2ccc(OC)cc2)no1
770 | N#CC1=C(SCC(=O)NCc2ccccc2)NC(=O)CC1c1ccco1 (configuration not stated)
853 | O=C(COc1ccc(F)cc1)Nc1ccccc1NC(=O)c1ccccc1Cl
687 | O=C(CCc1ccccc1)Nc1c(-c2ccc(F)cc2)nc2ccccn12
917 | O=C(c1cccc(Cl)c1)N1CCN(c2cc(-c3ccc(Cl)cc3)[nH]n2)CC1
666 | CCOc1ccc(S(=O)(=O)Nc2cccc(-c3cn4cccc(C)c4n3)c2)cc1
740 | CC(C)CN1C(=O)c2ccccc2C(C(=O)NCCCN2CCCC2=O)C1c1cccs1 (configuration not stated)
